Series [1] has as its system Gtf-1. Put plainly: In vitro HPLC-MS glucosyltransferase activity assay with sonicated extract of recombinant S. cerevisiae [pYES2/NT/gft1]. It is filed as biochemical, C. bombicola. As to conditions: for glucosyltransferase enzyme activity toward lipid substrate (appearance of glucoside product): UDP-glucose as sugar substrate, 30° C., 3 hours, HPLC-MS, product absent with control [pYES2/NT/lacZ] extract; for effect of lipid stock solvent on enzyme activity: solvent used to prepare 50 mM lipid stock solution. The procedure: An in vitro enzyme activity assay is performed to verify the functional property of Gtf-1 expressed in the recombinant S. cereviciae [pYES2/NT/gft1]. In this plasmid, the expression of gtf-1 is regulated by a yeast GAL1 promoter that is inducible by the addition of galactose (FIG. 1). An HPLC-MS-based method is developed to assay for glucosyltransferase activity in recombinant S. cerevisiae expressing C. bombicola gft-1 gene cloned in the pYES2/NT/gft1 plasmid construct. As control samples, S. cerevisiae transformed with pYES2/NT/gft1CON and pYES2/NT/lacZ are included in the study. The growing and induction of S. cerevisiae cells is performed according to the protocol described in the manual of pYES2/NT Yeast Expression System (Invitrogen, Carlsbad, Calif.). Briefly, cells from long-term (−80° C.) storage stock cultures are streaked on Yeast Extract Peptone Dextrose (YPD) agar solid medium (1% w/v yeast extract, 2% w/v peptone, 2% w/v dextrose (D-(+)glucose), 2% w/v agar) and grown at 30° C. for 1 to 2 days. A single colony is picked to inoculate 5 ml of SC-U+Glu(2%) in a 25-ml Erlenmeyer flask. The culture is grown overnight at 30° C. and 200 rpm. A volume of the overnight culture, which is based on achieving a theoretical absorbance at 600 nm (A600 nm)=0.4 in the fresh culture, is added to 50 ml of SC-U+Raf(2%) medium in a 125-ml Erlenmeyer. After an overnight incubation (30° C., 200 rpm), A600 nm values of the cultures are recorded. Five ml of sterile 20% (w/v) D-(+)-galactose are added to each culture to induce expression of the cloned gene, and the cells are incubated for 4 hours at 30° C., 200 rpm. Cells are then harvested by centrifugation (Sorvall RC-5B Plus centrifuge; 5,000×g; 10 min; 4° C.) (ThermoFisher Scientific, Waltham, Mass.) with the supernatant being decanted. The pelleted cells are resuspended and washed with 5 ml cold water, undergo another centrifugation using same parameters with removal of the supernatant after centrifugation, and are resuspended in a volume of a Breaking Buffer (50 mM sodium phosphate at pH 7.4; 1 mM Na-EDTA; 5% v/v glycerol; 1 mM phenylmethylsulfonylfluoride (PMSF) which is added immediately before use) in 15-mL Corex centrifugation tube to give a theoretical A600 nm of 200. Cell suspension can be stored at −20° C. overnight and still retain glucosyltransferase activity. Cells are broken by sonication (Sonicator model W-385 equipped with a microtip probe; Heat-Systems, Inc., Farmingdale, N.Y.) for 10 to 15 seconds (with 30 seconds sample cooling on ice-water bath) at maximum probe-tolerant power setting. The sonicated cell suspension (SCS) is used in the reaction mixtures to assay for glycosylation activity.
The reaction mixture for glycosylation assay is largely based on that described by Saerens et al. 2011b. The following procedure is used: 10 μl of a 50 mM-lipid substrate stock solution (which is prepared in one of the following solvents: DMF (dimethylformamide), DMSO ([…]), THF (tetrahydrofuran), ethylacetate, or ethanol) and 10 μl of a 50 mM-UDP-glucose solution (Sigma Aldrich, St. Louis, Mo.) are added to 30 μl of 50 mM potassium phosphate buffer (pH 7.5) in a 13×100 mm test tube on ice. 200 μl of the sonicated cell suspension is then added to the mixture of the two substrates. The final reaction mixture (250 μl) is incubated at 30° C. for 3 hours with frequent manual mixing (approximately every 10-15 minutes). The reaction is stopped by the addition of 200 μl of 2N HCl, followed by vigorous vortex mixing for approximately 30 to 60 seconds. The reaction mixture is extracted with 1 to 2 ml 1:1 v/v ethylether/ethylacetate mixture by vigorous vortex mixing. The tube is placed on lab bench undisturbed for phase separation to occur. Using a Hamilton syringe, the organic phase (upper layer) is carefully removed and is placed into a clean test tube (12×75 mm). The solvent is then evaporated by passing a stream of nitrogen gas over the solution, leaving a dry residue. […]

The conditions of series [2]: aqueous solution of sophorolipid; cited from earlier work.

Turning to 17-hydroxy-oleate [17-OH oleate], the “glucosyltransferase enzyme activity toward lipid substrate (appearance of glucoside product)” value in series [1] was “presence of glucosyltransferase enzyme activity is confirmed”.
`CN(C)C=O` [DMF, dimethylformamide]: the “effect of lipid stock solvent on enzyme activity” value in series [1] is given as “without adversely impacting on enzymatic activity”.
Still for that read-out and setting: the entry for `C1CCOC1` [THF, tetrahydrofuran] is “inhibits enzyme activity”.
Regarding `CC(C)CCC[C@@H](C)[C@H]1CC[C@H]2[C@@H]3CC=C4C[C@@H](O)CC[C@]4(C)[C@H]3CC[C@]12C` [cholesterol], in series [1], the “glucosyltransferase enzyme activity toward lipid substrate (appearance of glucoside product)” value was “presence of glucosyltransferase enzyme activity is confirmed”.
`CC(C)[C@@H](C)/C=C/[C@@H](C)[C@H]1CC[C@H]2C3=CC=C4C[C@@H](O)CC[C@]4(C)[C@H]3CC[C@]12C` [ergosterol]: in series [1], the “glucosyltransferase enzyme activity toward lipid substrate (appearance of glucoside product)” value was “give the same results”.
Same read-out and setting: the entry for `CC[C@H](/C=C/[C@@H](C)[C@H]1CC[C@H]2[C@@H]3CC=C4C[C@@H](O)CC[C@]4(C)[C@H]3CC[C@]12C)C(C)C` [stigmasterol] is “give the same results”; for `CC[C@H](CC[C@@H](C)[C@H]1CC[C@H]2[C@@H]3CC=C4C[C@@H](O)CC[C@]4(C)[C@H]3CC[C@]12C)C(C)C` [β-sitosterol] it is “give the same results”.
On to sophorolipid, for which the Surface tension in series [2] is 30-40 mN/m.

(Values after patent publication US9388444B2, “Use of glucosyltransferase gene” (The United States of America, as represented by the …, priority 2013, dated 2016).)
